Target: T1, PI4KB (Homo sapiens, UniProt Q9UBF8)
T1 construct: purified GST-PI4KB (PV5277, Thermo Fisher)
Type: biochemical

T1 sequence (Q9UBF8 2-816): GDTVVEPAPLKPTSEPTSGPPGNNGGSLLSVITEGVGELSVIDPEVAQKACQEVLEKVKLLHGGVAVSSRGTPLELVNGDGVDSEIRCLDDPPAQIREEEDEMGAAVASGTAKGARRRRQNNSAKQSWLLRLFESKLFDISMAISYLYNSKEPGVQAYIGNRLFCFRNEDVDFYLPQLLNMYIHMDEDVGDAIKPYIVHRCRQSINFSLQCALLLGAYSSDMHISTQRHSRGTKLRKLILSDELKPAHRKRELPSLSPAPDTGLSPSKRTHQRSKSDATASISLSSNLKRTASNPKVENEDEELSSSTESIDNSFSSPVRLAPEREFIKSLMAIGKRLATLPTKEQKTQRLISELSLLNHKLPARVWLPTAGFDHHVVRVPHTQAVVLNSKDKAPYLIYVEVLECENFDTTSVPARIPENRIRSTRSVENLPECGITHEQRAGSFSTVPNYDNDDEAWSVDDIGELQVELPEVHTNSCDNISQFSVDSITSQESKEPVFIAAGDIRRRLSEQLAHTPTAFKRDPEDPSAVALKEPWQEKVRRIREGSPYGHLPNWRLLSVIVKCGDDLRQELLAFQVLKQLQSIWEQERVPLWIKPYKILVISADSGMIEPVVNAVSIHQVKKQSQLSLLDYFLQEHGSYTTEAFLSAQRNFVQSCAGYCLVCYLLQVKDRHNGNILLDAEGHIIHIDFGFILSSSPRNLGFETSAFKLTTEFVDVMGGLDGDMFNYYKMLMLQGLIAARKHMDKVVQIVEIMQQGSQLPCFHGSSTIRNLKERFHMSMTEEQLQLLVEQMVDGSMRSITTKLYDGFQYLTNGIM

COc1cc(/C=C/C(=O)OC[C@H]2O[C@H](O[C@]3(COC(=O)/C=C/c4ccc(O)cc4)O[C@H](COC(=O)/C=C/c4ccc(O)cc4)[C@@H](O)[C@@H]3OC(=O)/C=C/c3ccc(O)cc3)[C@H](O)[C@@H](O)[C@@H]2O)ccc1O [VCB, vanicoside B]
IC50: 5 µM

Reference: publication PMC10145814 (Viruses, 2023)
